Converted amounts (≈) assume the structure as drawn. The source made the active and inactive calls. The rule behind the calls is not given here.
Key:
[1] = Hemolytic activity in human red blood cells at 400 ug/ml incubated for 45 mins by spectrophotometric analysis relative to control; assay type: toxicity, cell-based, Erythrocyte; conditions: red blood cells (erythrocytes), at 400 µg/mL, read-out: Activity
Escherichia coli [2] = assay: Antibacterial activity against Escherichia coli ATCC 25922 harboring tolC knock-out assessed as inhibition of bacterial growth incubated for 18 hrs; assay type: functional; conditions: read-out: MIC100
[3] = Hydrophobicity of compound assessed as %MeCN at peak elution by RP-HPLC analysis; assay type: physicochemical
[4] = Chemical stability of compound at pH 7.4; assay type: physicochemical; conditions: buffer
[5] = Chemical stability of compound in mercaptoethanol; assay type: physicochemical
[6] = Hepatotoxicity in cryopreserved rat primary hepatocytes; assay type: toxicity, cell-based, Hepatocyte
[7] = Genotoxicity in human TK6 cells measured after 3 to 24 hrs; assay type: toxicity, cell-based; conditions: time 3-24 hrs
Cytochrome P450 1A2 = target: T1, Cytochrome P450 1A2 (Homo sapiens, UniProt P05177); assay: Induction of CYP1A2 (unknown origin); assay type: ADME
T1 sequence (P05177 whole entry): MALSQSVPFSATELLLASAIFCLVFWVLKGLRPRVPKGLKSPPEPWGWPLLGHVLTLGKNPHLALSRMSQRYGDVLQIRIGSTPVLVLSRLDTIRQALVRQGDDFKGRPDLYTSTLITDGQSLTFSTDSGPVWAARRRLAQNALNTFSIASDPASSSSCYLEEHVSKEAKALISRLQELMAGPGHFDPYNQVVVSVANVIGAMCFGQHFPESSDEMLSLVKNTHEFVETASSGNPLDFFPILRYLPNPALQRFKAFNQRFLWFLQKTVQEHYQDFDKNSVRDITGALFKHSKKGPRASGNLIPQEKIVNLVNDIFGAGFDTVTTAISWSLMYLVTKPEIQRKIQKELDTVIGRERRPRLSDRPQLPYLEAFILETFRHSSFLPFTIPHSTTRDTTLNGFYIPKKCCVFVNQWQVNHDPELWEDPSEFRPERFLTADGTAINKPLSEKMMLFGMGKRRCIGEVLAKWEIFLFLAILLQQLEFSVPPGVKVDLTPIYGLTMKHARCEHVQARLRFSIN

[8] = Clearance in rat microsomes; assay type: ADME, Microsome
[9] = Cmax in Swiss mouse plasma at 10 mg/kg, iv administered as single bolus dose and measured upto 24 hrs by LC-MS/MS analysis; assay type: ADME, organism-based
[10] = Cmax in Swiss mouse lung at 10 mg/kg, iv administered as single bolus dose and measured upto 24 hrs by LC-MS/MS analysis; assay type: ADME, organism-based
[11] = AUClast in Swiss mouse plasma at 10 mg/kg, iv administered as single bolus dose and measured upto 24 hrs by LC-MS/MS analysis; assay type: ADME, organism-based
[12] = AUClast in Swiss mouse liver at 10 mg/kg, iv administered as single bolus dose and measured upto 24 hrs by LC-MS/MS analysis; assay type: ADME, organism-based
Escherichia coli [13] = assay: Antibacterial activity against Escherichia coli Swiss 7 harboring mcr-1 gene assessed as inhibition of bacterial growth incubated for 18 hrs; assay type: functional; conditions: read-out: MIC100
Escherichia coli [14] = assay: Antibacterial activity against Escherichia coli Swiss 9 harboring mcr-1 gene assessed as inhibition of bacterial growth incubated for 18 hrs; assay type: functional; conditions: read-out: MIC100
Providencia stuartii = assay: Antibacterial activity against Providencia stuartii ATCC 25826 assessed as inhibition of bacterial growth incubated for 18 hrs; assay type: functional; conditions: read-out: MIC100
Pseudomonas aeruginosa = assay: Antibacterial activity against efflux-deficient Pseudomonas aeruginosa PAO750 assessed as inhibition of bacterial growth incubated for 18 hrs; assay type: functional; conditions: read-out: MIC100
Staphylococcus aureus = assay: Antibacterial activity against wild type Staphylococcus aureus USA300 assessed as inhibition of bacterial growth incubated for 18 hrs; assay type: functional; conditions: read-out: MIC100
Escherichia coli [15] = assay: Antibacterial activity against Escherichia coli ATCC 25922 assessed as inhibition of bacterial growth incubated for 18 hrs in presence of 2 mM CaCl2; assay type: functional, organism-based
Klebsiella pneumoniae [16] = assay: Antibacterial activity against Klebsiella pneumoniae ATCC 13883 assessed as inhibition of bacterial growth incubated for 18 hrs in presence of 150 mM NaCl; assay type: functional, organism-based
Klebsiella pneumoniae [17] = assay: Antibacterial activity against Klebsiella pneumoniae ATCC 13883 assessed as inhibition of bacterial growth incubated for 18 hrs in presence of 2 mM CaCl2; assay type: functional, organism-based
Klebsiella pneumoniae [18] = assay: Antibacterial activity against Klebsiella pneumoniae ATCC 13883 assessed as inhibition of bacterial growth incubated for 18 hrs in presence of 2 mM MgCl2; assay type: functional, organism-based
[19] = Drug uptake in Escherichia coli ATCC 25922 at 10 uM incubated for 10 mins by LC-MS/MS analysis; assay type: ADME
[20] = Drug localization in cytoplasm of Escherichia coli ATCC 25922 at 10 uM incubated for 10 mins by LC-MS/MS analysis; assay type: ADME, subcellular
Lipopolysaccharide (LPS) = assay: Binding affinity to Escherichia coli O55:B5 LPS assessed as dissociation constant by ITC analysis; assay type: subcellular
Cell membrane [21] = assay: Induction of membrane permeabilization in Escherichia coli ATCC 25922 at 32 to 64 ug/ml measured after 30 mins to 2 hrs by Sytox Green labelling based microscopic analysis; assay type: cell membranes; conditions: dose 32-64 µg/ml, time 0.5-2 hrs
Cell membrane [22] = assay: Induction of membrane permeabilization in Klebsiella pneumoniae ATCC 13883 at 32 to 64 ug/ml measured after 30 mins by Sytox Green labelling based microscopic analysis; assay type: cell membranes; conditions: dose 32-64 µg/ml
Escherichia coli [23] = assay: Antibacterial activity against Escherichia coli ATCC 35218 infected in Swiss albino mouse septicemia model at 10 to 30 mg/kg, iv administered twice every 2 hrs and measured after 5 hrs; assay type: functional, organism-based; conditions: dose 10-30 mg/kg
Escherichia coli [24] = assay: Antibacterial activity against Escherichia coli ATCC 35218 infected in Swiss albino mouse septicemia model assessed as log10 reduction in bacterial burden below stasis in kidney at 20 mg/kg, iv administered twice every 2 hrs and measured after 5 hrs; assay type: functional
Klebsiella pneumoniae [25] = assay: Antibacterial activity against Klebsiella pneumoniae ATCC 43816 infected in mouse urinary tract infection model at <10 mg/kg, iv administered every 4 hrs and measured after 26 hrs; assay type: functional, organism-based
Klebsiella pneumoniae [26] = assay: Antibacterial activity against Klebsiella pneumoniae ATCC 43816 infected in mouse urinary tract infection model assessed as reduction in bacterial burden in urine at <10 mg/kg, iv administered every 4 hrs and measured after 26 hrs; assay type: functional, organism-based

CC[C@H](C)[C@@H](NC(=O)[C@@H](NC(=O)[C@H](CCC(=O)O)NC(=O)[C@H](Cc1ccccc1)NC(=O)[C@@H](CCN)NC(=O)[C@H](CCN)NC(=O)[C@H](CO)NC(=O)[C@@H](Cc1c[nH]c2ccccc12)NC(=O)[C@@H](CO)NC(=O)CNC(=O)[C@@H](CCN)NC(=O)[C@H](NC(=O)[C@H](C)N)C(C)C)C(C)C)C(=O)N[C@@H](C)C(=O)O
hemolysis at 0.75 h, 400 ug/ml [1]: 9.1%
MIC (Escherichia coli [2]): 1 µg/mL (≈ 0.682 µM)
MeCN percentage at peak elution [3]: 40.3%
Stability [4]: Stable
Stability [5]: Stable
Activity [6]: Non-Toxic
Activity [7]: Non-Toxic
Activity (Cytochrome P450 1A2): Not Active
microsomal CLint [8]: 19 µL/min/mg
Cmax [9]: 166 µg/mL
Cmax [10]: 17 µg/mL
AUC(0-t) at 24 h [11]: 82500 ng·h/mL
AUC(0-t) at 24 h [12]: 3020 ng·h/mL
MIC (Escherichia coli [13]): 16 µg/mL (≈ 10.9 µM)
MIC (Escherichia coli [14]): 8 µg/mL (≈ 5.46 µM)
MIC (Providencia stuartii): > 32 µg/mL
MIC (Pseudomonas aeruginosa): 32 µg/mL (≈ 21.8 µM)
MIC (Staphylococcus aureus): > 32 µg/mL
Activity (Escherichia coli [15]): Active
Activity (Klebsiella pneumoniae [16]): Active
Activity (Klebsiella pneumoniae [17]): Active
Activity (Klebsiella pneumoniae [18]): Active
Drug uptake [19]: Active
Drug uptake [20]: Active
Kd (Lipopolysaccharide (LPS)): 35.7 µM
Activity (Cell membrane [21]): Active
Activity (Cell membrane [22]): Active
Activity (Escherichia coli [23]): Active
log(activity) (Escherichia coli [24]): ~2
Activity (Klebsiella pneumoniae [25]): Active
Activity (Klebsiella pneumoniae [26]): inactive
